Measurements reported in patent US8211662B2, “Nitroreductase enzymatic substrates” (Biomerieux, priority 2007, dated 2012).

Key:
MRSA NCTC 11939 = assay: Nitroreductase detection on Columbia agar, colonies read under UV; type: cell-based, Staphylococcus aureus; set-up: key: − = no fluorescence detected; +/− = weak fluorescence; + = medium fluorescence; ++ = strong fluorescence; conditions: 100 mg/l in Columbia agar, 24 h 37° C., UV 360-365 nm
Protocol: (§1) A mass of 40 mg of each substrate was dissolved in 4 ml of dimethylformamide (DMF). This solution was entirely taken up in 400 ml of Columbia agar autoclaved beforehand and kept molten at 50° C. The final concentration for each substrate was 100 mg/l.
(§2) Each of the media was distributed into Petri dishes 90 mm in diameter, in a proportion of 20 ml per dish.
(§3) 18 microorganism strains derived from collections and belonging to various species of bacteria and of yeasts were inoculated onto these media by semi-quantitative isolation of 10 μl of a suspension at 0.5 McFarland diluted to 1/20. The media were incubated for 24 hours at 37° C., then the colonies formed were examined visually under UV illumination at 360-365 nm.

[1] = tested on: Morganella morganii 462403 (wild); assay: as above; type: cell-based; set-up: key to Intensity of fluorescence, Morganella morganii 462403 / F: fluorescence (intensity), Morganella morganii 462403 (wild) / Intensity of the fluorescence, Morganella morganii 462403 (wild): − = no fluorescence detected; +/− = weak fluorescence; + = medium fluorescence; ++ = strong fluorescence; conditions: for Intensity of fluorescence, Morganella morganii 462403: 100 mg/l in Columbia agar, 24 h 37° C., UV 360-365 nm
Protocol: as §1, §2, §3

[2] = tested on: Escherichia coli NCTC 10418; assay: as above; type: cell-based; set-up: key: − = no fluorescence detected; +/− = weak fluorescence; + = medium fluorescence; ++ = strong fluorescence; conditions: 100 mg/l in Columbia agar, 24 h 37° C., UV 360-365 nm
Protocol: as §1, §2, §3

[3] = tested on: Candida albicans ATCC 90028; assay: as above; type: cell-based; set-up: key: − = no fluorescence detected; +/− = weak fluorescence; + = medium fluorescence; ++ = strong fluorescence; conditions: 100 mg/l in Columbia agar, 24 h 37° C., UV 360-365 nm
Protocol: as §1, §2, §3

[4] = tested on: Staphylococcus epidermidis NCTC 11047; assay: as above; type: cell-based; set-up: key: − = no fluorescence detected; +/− = weak fluorescence; + = medium fluorescence; ++ = strong fluorescence; conditions: 100 mg/l in Columbia agar, 24 h 37° C., UV 360-365 nm
Protocol: as §1, §2, §3

[5] = tested on: Listeria monocytogenes NCTC 11994; assay: as above; type: cell-based; set-up: key: − = no fluorescence detected; +/− = weak fluorescence; + = medium fluorescence; ++ = strong fluorescence; conditions: 100 mg/l in Columbia agar, 24 h 37° C., UV 360-365 nm
Protocol: as §1, §2, §3

[6] = tested on: Enterobacter cloacae NCTC 11936; assay: as above; type: cell-based; set-up: key: − = no fluorescence detected; +/− = weak fluorescence; + = medium fluorescence; ++ = strong fluorescence; conditions: 100 mg/l in Columbia agar, 24 h 37° C., UV 360-365 nm
Protocol: as §1, §2, §3

[7] = tested on: Yersinia enterocolitica NCTC 11176; assay: as above; type: cell-based; set-up: key: − = no fluorescence detected; +/− = weak fluorescence; + = medium fluorescence; ++ = strong fluorescence; conditions: 100 mg/l in Columbia agar, 24 h 37° C., UV 360-365 nm
Protocol: as §1, §2, §3

[8] = tested on: Staphylococcus aureus NCTC 6571; assay: as above; type: cell-based; set-up: key: − = no fluorescence detected; +/− = weak fluorescence; + = medium fluorescence; ++ = strong fluorescence; conditions: 100 mg/l in Columbia agar, 24 h 37° C., UV 360-365 nm
Protocol: as §1, §2, §3

[9] = tested on: Pseudomonas aeruginosa NCTC 10662; assay: as above; type: cell-based; set-up: key: − = no fluorescence detected; +/− = weak fluorescence; + = medium fluorescence; ++ = strong fluorescence; conditions: 100 mg/l in Columbia agar, 24 h 37° C., UV 360-365 nm
Protocol: as §1, §2, §3

[10] = tested on: Bacillus subtilis NCTC 9372; assay: as above; type: cell-based; set-up: key: − = no fluorescence detected; +/− = weak fluorescence; + = medium fluorescence; ++ = strong fluorescence; conditions: 100 mg/l in Columbia agar, 24 h 37° C., UV 360-365 nm
Protocol: as §1, §2, §3

[11] = tested on: Streptococcus pyogenes NCTC 8306; assay: as above; type: cell-based; set-up: key: − = no fluorescence detected; +/− = weak fluorescence; + = medium fluorescence; ++ = strong fluorescence; conditions: 100 mg/l in Columbia agar, 24 h 37° C., UV 360-365 nm
Protocol: as §1, §2, §3

[12] = tested on: Serratia marcescens NCTC 10211; assay: as above; type: cell-based; set-up: key: − = no fluorescence detected; +/− = weak fluorescence; + = medium fluorescence; ++ = strong fluorescence; conditions: 100 mg/l in Columbia agar, 24 h 37° C., UV 360-365 nm
Protocol: as §1, §2, §3

[13] = tested on: Enterococcus faecalis NCTC 775; assay: as above; type: cell-based; set-up: key: − = no fluorescence detected; +/− = weak fluorescence; + = medium fluorescence; ++ = strong fluorescence; conditions: 100 mg/l in Columbia agar, 24 h 37° C., UV 360-365 nm
Protocol: as §1, §2, §3

[14] = tested on: Salmonella typhimurium NCTC 74; assay: as above; type: cell-based; set-up: key to Intensity of fluorescence, Salmonella typhimurium NCTC 74 / F: fluorescence (intensity), Salmonella typhimurium NCTC 74 / Intensity of the fluorescence, Salmonella typhimurium NCTC 74: − = no fluorescence detected; +/− = weak fluorescence; + = medium fluorescence; ++ = strong fluorescence; conditions: for Intensity of fluorescence, Salmonella typhimurium NCTC 74: 100 mg/l in Columbia agar, 24 h 37° C., UV 360-365 nm; for Salmonella typhimurium result with the substrate: table 2
Protocol: as §1, §2, §3

[15] = tested on: Acinetobacter baumanii ATCC 19606; assay: as above; type: cell-based; set-up: key to Intensity of fluorescence, Acinetobacter baumanii ATCC 19606 / Intensity of the fluorescence, Acinetobacter baumanii ATCC 19606: − = no fluorescence detected; +/− = weak fluorescence; + = medium fluorescence; ++ = strong fluorescence; conditions: for Intensity of fluorescence, Acinetobacter baumanii ATCC 19606: 100 mg/l in Columbia agar, 24 h 37° C., UV 360-365 nm
Protocol: as §1, §2, §3

[16] = tested on: Candida glabrata NCPF 3943; assay: as above; type: cell-based; set-up: key to Intensity of fluorescence, Candida glabrata NCPF3943 / F: fluorescence (intensity), Candida glabrata NCPF 3943 / Intensity of the fluorescence, Candida glabrata NCPF 3943: − = no fluorescence detected; +/− = weak fluorescence; + = medium fluorescence; ++ = strong fluorescence; conditions: 100 mg/l in Columbia agar, 24 h 37° C., UV 360-365 nm
Protocol: as §1, §2, §3

S. epidermidis 2 strains = assay: Detection of various strains of S. aureus in the presence of substrates; type: cell-based
Protocol: as §1, §2
18 microorganism strains derived from collections and belonging to various species of bacteria and of yeasts were inoculated onto these media by semi-quantitative isolation of 10 μl of a suspension at 0.5 McFarland diluted to 1/20. […]

[17] = tested on: S. aureus (including MRSA) 10 strains; assay: as above; type: cell-based, Staphylococcus aureus; conditions: for No. of strains detected, S. aureus (including MRSA): 10 strains
Staph spp 12 strains = assay: as above; type: cell-based
Enterococcus 6 strains = assay: as above; type: cell-based

Structure (SMILES) | Intensity of fluorescence, Staphylococcus aureus NCTC 11939 (MRSA NCTC 11939) | Intensity of fluorescence, Morganella morganii 462403 [1] | Intensity of fluorescence, Escherichia coli NCTC 10418 [2] | Intensity of fluorescence, Candida albicans ATCC 90028 [3] | Intensity of fluorescence, Staphylococcus epidermidis NCTC 11047 [4] | Intensity of fluorescence, Listeria monocytogenes NCTC 11994 [5] | Intensity of fluorescence, Enterobacter cloacae NCTC 11936 [6] | Intensity of fluorescence, Yersinia enterocolitica NCTC 11176 [7] | Intensity of fluorescence, Staphylococcus aureus NCTC 6571 [8] | Intensity of fluorescence, Pseudomonas aeruginosa NCTC 10662 [9] | Intensity of fluorescence, Bacillus subtilis NCTC 9372 [10] | No. of strains detected, S. epidermidis (S. epidermidis 2 strains; 24 h) | No. of strains detected, S. epidermidis (S. epidermidis 2 strains; 48 h) | Distinguishing or identifying Staphylococcus aureus strains, in particular MRSA, from most of the other Gram-positive bacterial strains [17] | No. of strains detected, S. aureus (including MRSA) ([17]; 24 h) | No. of strains detected, S. aureus (including MRSA) ([17]; 48 h) | No. of strains detected, Staph spp (Staph spp 12 strains; 24 h) | No. of strains detected, Staph spp (Staph spp 12 strains; 48 h) | No. of strains detected, Enterococcus (Enterococcus 6 strains; 24 h) | No. of strains detected, Enterococcus (Enterococcus 6 strains; 48 h) | also measured
O=[N+]([O-])c1ccccc1-c1nc2ccccc2n1CCc1ccccc1 [Substrate 12] | − | +/− | − | − | − | − | − | − | − | − | − |  |  |  |  |  |  |  |  |  | Specificity of the substrate ([1]; table 2): specific for Morganella morganii; Intensity of fluorescence, Streptococcus pyogenes NCTC 8306 [11]: −; Intensity of fluorescence, Serratia marcescens NCTC 10211 [12]: −; Intensity of fluorescence, Enterococcus faecalis NCTC 775 [13]: −; Intensity of fluorescence, Salmonella typhimurium NCTC 74 [14]: −; Salmonella typhimurium result with the substrate [14]: negative; Intensity of fluorescence, Acinetobacter baumanii ATCC 19606 [15]: −; Intensity of fluorescence, Candida glabrata NCPF3943 [16]: −
O=[N+]([O-])c1ccc(Cl)cc1-c1nc2ccccc2o1 [Substrate 4] |  |  |  |  |  |  |  |  |  |  |  | 0 | 2 | make it possible to distinguish or identify the Staphylococcus aureus strains | 10 | 10 | 12 | 12 | 0 | 1 | 
O=[N+]([O-])c1ccc(F)cc1-c1nc2ccccc2o1 [Substrate 7] | ++ | ++ | ++ | − | − | − | ++ | − | ++ | − | − | 0 | 2 | make it possible to distinguish or identify the Staphylococcus aureus strains | 10 | 10 | 12 | 12 | 0 | 1 | Intensity of fluorescence, Streptococcus pyogenes NCTC 8306 [11]: −; Intensity of fluorescence, Serratia marcescens NCTC 10211 [12]: ++; Intensity of fluorescence, Enterococcus faecalis NCTC 775 [13]: −; Intensity of fluorescence, Salmonella typhimurium NCTC 74 [14]: ++; Salmonella typhimurium result with the substrate [14]: strongly positive; Intensity of fluorescence, Acinetobacter baumanii ATCC 19606 [15]: +; Distinguishing Pseudomonas aeruginosa from Acinetobacter baumanii ([15]; table 2): make it possible to distinguish Pseudomonas aeruginosa from Acinetobacter baumanii; Intensity of fluorescence, Candida glabrata NCPF3943 [16]: −
Cc1ccc2oc(-c3ccccc3[N+](=O)[O-])nc2c1 [Substrate 3] |  |  |  |  |  |  |  |  |  |  |  | 0 | 2 | make it possible to distinguish or identify the Staphylococcus aureus strains | 10 | 10 | 12 | 12 | 0 | 1 | 
O=[N+]([O-])c1ccc(Cl)cc1-c1nc2ccccc2s1 [Substrate 21] |  |  |  |  |  |  |  |  |  |  |  | 0 | 2 | make it possible to distinguish or identify the Staphylococcus aureus strains | 10 | 10 | 12 | 12 | 0 | 1 | 
CN1CCN(c2ccc([N+](=O)[O-])c(-c3nc4ccccc4o3)c2)CC1 [Substrate 8] |  |  |  |  |  |  |  |  |  |  |  | 0 | 2 | make it possible to distinguish or identify the Staphylococcus aureus strains | 10 | 10 | 12 | 12 | 0 | 1 | 
